Results on two compounds are retold here after US20150273076A1, “SP1 POLYPEPTIDES, MODIFIED SP1 POLYPEPTIDES AND USES THEREOF” (Fulcrum SP Ltd., priority 2006, published 2015).

The conditions of data set [1]: mouse, in vivo, iv.
Description: C57B1 male mice bearing the B16-F10 (B16) melanoma tumor were divided into three groups: Group A-injected once (iv with fluoresceinamine-SP1 conjugate (10 mg/ml, 0.1 ml per mouse), n=5 mice;
Group B-injected once with unconjugated fluoresceinamine solution (34 mM in PBS, 0.1 ml per animal); n=5 mice; and Group C received no treatment. n=2 mice. Internal organs were harvested 24 hours post injection, and stored at 70° C. Blood was collected and left at room temperature to coagulate. Tumor extracts and serum samples were analyzed on SDS PAGE, and proteins were blotted onto nitrocellulose. Immunodetection of SP1 was with rabbit anti SP1 and HRP-conjugated second antibody.
B16-F10 (B16) melanoma tumor C57B1 male mice bearing the B16-F10 (B16) melanoma tumor were prepared and cared for as described by Kalechman (Int J Cancer 2000; 86:281-8). B16F10 melanoma cells (5×10^5 or 5×10^6 cells/mouse) were injected into the lateral tail vein of the mice and the presence of cancer tumors was evaluated at day 14 following melanoma cell injection by an overall view of the mouse and/or histopathology examinations. […]
Another data set concerns SP1. Put plainly: Vinblastine binding to SP1 by intrinsic tryptophan fluorescence. Set-up: species or system Populus tremula. The settings on record: native SP1; 80 μM Vinblastine shifts maximal emission to 356 nm. The protocol: FIG. 23 is a graph showing the complex formation of the drug Vinblastine to SP1. Left panel-emission spectra (excitation wavelength=286.00 nm) of pure SP1 (48 μM in MES) was determined using a fluorometer. Both native (left curves) and unfolded (6M Guanidinum HCl)(right curves) SP1 were tested. The net effect of Vinblastine on Tryptophan fluorescence of native protein was calculated by subtracting the relative quenching by the unfolded protein from those of the native protein at the respective maximal emission wavelength (340 nm and 321 nm respectively). Note that the tryptophan fluorescence of both the folded and unfolded SP1 protein is quenched by Vinblastine complexing, but in the case of the folded protein is also accompanied by a red shift);
Vinblastine, a vinca alkaloid, is mainly useful for treating Hodgkin's disease, lymphocytic lymphoma, histiocytic lymphoma, advanced testicular cancer, advanced breast cancer, Kaposi's sarcoma. Vinblastine binding to SP1, was determined by Intrinsic Tryptophan fluorescence measurements.
SP1 has only one Tryptophan residue (Trp 48). […] Unfolded protein fluorescence is also quenched by Vinblastine (FIG. 23), but unlike the native protein it is not accompanied by red shift. Thus, folded SP1-Vinblastine association can be detected, and quantified by changes in its Intrinsic Tryptophan fluorescence.

As for `Nc1ccc2c(c1)C(=O)OC21c2ccc(O)cc2Oc2cc(O)ccc21` [Fluoresceinamine], in data set [1], the clearance from circulation entry is “rapidly cleared”. Consider `CC[C@]1(O)C[C@@H]2CN(CCc3c([nH]c4ccccc34)[C@@](C(=O)OC)(c3cc4c(cc3OC)N(C)[C@H]3[C@@](O)(C(=O)OC)[C@H](OC(C)=O)[C@]5(CC)C=CCN6CC[C@]43[C@@H]65)C2)C1` [Vinblastine], for which, in the data set on SP1, the “effect on SP1 tryptophan fluorescence” value is on record as “fluorescence quenching accompanied by a red shift”.
